# Laboratory results taken from EP4755393A1, “USE OF PROTON PUMP REGULATOR IN PREPARATION OF DRUG” (Shanghai Quietd Biotechnology Co., Ltd., priority 2023, dated 2025).
# Entries after “also recorded” stand apart in the source; their conditions may differ. Ends that are not written are not given here.
# Key:
# [1] = system: hippocampal CA1 pyramidal neurons; assay: Whole-cell patch-clamp recording of spontaneous excitatory postsynaptic current (sEPSC) in hippocampal brain sections; type: cell-based, C57 mouse; details: 5 µM polypeptide applied for 5 min; clamp voltage -70 mV; FIGS. 8A-8C
# From the text: • Polypeptide QD202 was synthesized according to the amino acid sequence set forth in SEQ ID NO: 1. • Polypeptide QD202 N'-1 was synthesized according to the amino acid sequence set forth in SEQ ID NO: 2. • Polypeptide QD202 C'-1 was synthesized according to the amino acid sequence set forth in SEQ ID NO: 3. • Polypeptide QD202 C'-2 was synthesized according to the amino acid sequence set forth in SEQ ID NO: 4. • Polypeptide SS8 was synthesized according to the amino acid sequence set forth in SEQ ID NO: 54.
# 0.1-0.15 ml of 20% ethyl carbamate was injected into the abdominal cavity of a C57 mouse of 2 to 3 months old for anesthesia; a head was quickly cut, and brain tissues were stripped and put into artificial cerebrospinal fluid (ACSF) ice-water mixed liquid into which mixed gas (95%O2 and 5%CO2) was introduced in advance, and stood for 2 min; the ACSF included the following components: […] of NaCl, […] of KCl, 0.12 mM of NaH2PO4, […] of CaCl2, 0.12 mM of MgCl2, 25 mM of NaHCO3 and 11 mM of glucose. A hippocampus coronal brain section of […] was cut by a vibration slicer. […] The recorded data were analyzed by Minianalysis software.
# APP/PS1 transgenic mice [2] = assay: Novel object recognition test in AD mice; type: in vivo; details: continuously for 1 week
# APP/PS1 transgenic mice [3] = assay: Morris water maze test in AD mice; type: in vivo; details: continuously for 1 week
# Male SD rats [4] = details: rat, in vivo
# Male SD rats [5] = details: rat, in vivo; remark: listed apart in the source
# HT22 cells = assay: Quantitative detection of ROS (DCFH-DA) in the oxygen-glucose deprivation (OGD) cell model; type: cell-based, Mouse; details: OGD 16 h, 24 h reoxygenation, OGD plus vehicle = 100%, mean ± standard deviation
# Description: Cell culture: Mouse hippocampal HT22 cells were cultured in DMEM and 10% serum at 37°C in a 5% CO2 incubator.
# Oxygen-glucose deprivation (OGD) cell model: HT22 cells were seeded at a density of about 1 ×10^5 into 96-well plates and cultured for 24 h in a 37°C incubator with 5% CO2/95% air in DMEM and 10% serum. After placing HT22 cells in glucose-free medium, they were transferred to a sealed container containing a 5% CO2/95% N2 mixture and incubated at 37°C for 16 h. The glucose-free medium was then replaced with a normal medium containing glucose, and the mixture was incubated for 24 h in a 37°C incubator containing 5% CO2/95% air for reoxygenation.
# Experimental grouping: Normally cultured HT22 cells were used as the control group. HT22 cells subjected to OGD were reoxygenated in normal culture medium and treated separately with vehicle, QD202 (0.1 µM, 1 µM, 5 µM), and the ROS scavenger edaravone (200 µM). After 24 h of reoxygenation, quantitative detection of ROS was performed.
# Quantitative detection of ROS: Reactive oxygen species were detected using the Beyotime reactive oxygen species detection kit and the fluorescent probe DCFH-DA. DCFH-DA was diluted 1:1000 with serum-free culture medium to a final concentration of 10 µM. The culture medium was removed and the diluted DCFH-DA was added. The cells were then incubated in a 37°C cell culture incubator for 20 min. The cells were washed three times with serum-free cell culture medium to thoroughly remove any DCFH-DA that had not entered the cells. Observation was performed under a fluorescence microscope, followed by quantification of the average fluorescence intensity using Image J software.
# Data analysis: Three parallel experiments were performed. The average fluorescence intensity of the OGD plus vehicle group was set as the standard value of 100% for normalization of the fluorescence intensity of cells in each group. Data were expressed as mean ± standard deviation, and […] tests were performed on the data of each group using One-Way ANOVA.
substance,measurement,setting,value
QD202: Polypeptide synthesized according to the amino acid sequence set forth in SEQ ID NO: 1; ATP6V1B2 regulator / DIR regulator (YGRKKRRQRRRSPVDVVCS; not fully specified),excitatory postsynaptic current amplitude,[1],no influence
same,release frequency of excitatory postsynaptic current,[1],increasing
same,learning and cognitive functions in the novel object recognition test,"APP/PS1 transgenic mice [2]; intragastric, 6.25 mg/kg, ten-month-old APP/PS1 mice, FIG. 9",obvious improvement of learning and cognitive functions
same,learning and cognitive functions in novel object recognition,"APP/PS1 transgenic mice [2]; intravenous injection, 1.25 mg/kg, APP/PS1 mice of 10 months old, FIG. 11",obvious improvement on learning and cognitive functions
same,learning and cognitive functions in the water maze behavior,"APP/PS1 transgenic mice [3]; intragastric, 6.25 mg/kg, ten-month-old APP/PS1 mice, FIG. 10",obvious improvement of learning and cognitive functions
same,learning and cognitive functions in water maze behavior,"APP/PS1 transgenic mice [3]; intravenous injection, 1.25 mg/kg, APP/PS1 mice of 10 months old, FIG. 12",obvious improvement on learning and cognitive functions
same,neurobehavioral score,Male SD rats [4],lower than that of the Model + QD202 placebo group with a statistical difference (p<0.05); also recorded: lower than that of the Model + QD202 placebo group with extremely significant statistical differences (p<0.001)
same,infarct volume,Male SD rats [5],"lower than that of the Model + QD202 placebo group, with a statistical difference (p<0.05); also recorded: lower than that of the Model + QD202 placebo group, with extremely significant statistical differences (p<0.001)"
same,inhibition rate of ROS,HT22 cells; 0.1 µM,17.55±12.95%
same,inhibition rate of ROS,HT22 cells; 1 µM,60.63±8.27%
same,inhibition rate of ROS,HT22 cells; 5 µM,70.09±2.84%
